The values that follow come from PMC8882611, “Corylus avellana: A Source of Diarylheptanoids With α-Glucosidase Inhibitory Activity Evaluated by in vitro and in silico Studies” (Frontiers in Plant Science, 2022).

Assay [1] concerns the target α-glucosidase enzyme (from Saccharomyces cerevisiae) (Saccharomyces cerevisiae, UniProt P53341). As to the kind of experiment: biochemical. To be noted: substrate 4-nitrophenyl α-D-glucopyranoside, pH 7.0, 37°C; samples 200, 300, 400 μM; mean ± SD of three experiments; read-out: α-Glucosidase inhibitory activity IC50 ± SD. As to the method: α-Glucosidase inhibitory activity was evaluated as previously reported ([Kilinc et al., 2020]). Briefly, 0.1 M phosphate buffer at pH 7.0 (150 μL) was added to each well; successively 10 μL of samples, dissolved in MeOH at different concentrations (200, 300, and 400 μM) were added; at this point, the reaction was initiated by the addition of 15 μL of the α-glucosidase enzyme (from Saccharomyces cerevisiae) (2 U/mL) in each well, and the plate was incubated for 5 min at 37°C; after 5 min 75 μL of the substrate (2.5 mM) 4-nitrophenyl α-D-glucopyranoside were added, and successively the plate was incubated for 10 min at 37°C. The absorbance was measured at 405 nm before (T0′) and after the incubation with the enzyme (T10′). […] Negative control absorbance (phosphate buffer in place of the sample) was also recorded. Inhibition of the enzyme was calculated, and the results were expressed as IC50 values. All experiments were carried out in triplicate. IC50 values were calculated through non-linear regression using Graphpad Prism 5 Software and expressed as means ± SD (standard deviation). They were considered statistically significant with values of p < 0.05.

A further assay has as its system plasma proteins. Further details: method as in Cerulli et al., 2021; Masullo et al., 2021. The settings on record: 10 μM, ref Cerulli et al., 2021, Masullo et al.; cited from earlier work.
The subject of assay [2] is H2O2– and H2O2/Fe2+-induced lipid peroxidation. Further details: method as in Masullo et al., 2015b. The settings on record: 10 μM; TBARS assay; ref Masullo et al., 2015b; cited from earlier work.
Assay [3] relates to Bacillus cereus, Staphylococcus aureus, Escherichia coli and Pseudomonas aeruginosa. Also on record: method as in Cerulli et al., 2017. To be noted: 40 μg/disk; tetracycline as positive control; ref Cerulli et al., 2017; cited from earlier work.

Bounds are passed on as bounds.

A word on the IC50: it is the concentration that gives 50% inhibition.

Chain of α-glucosidase enzyme (from Saccharomyces cerevisiae) (P53341 whole entry): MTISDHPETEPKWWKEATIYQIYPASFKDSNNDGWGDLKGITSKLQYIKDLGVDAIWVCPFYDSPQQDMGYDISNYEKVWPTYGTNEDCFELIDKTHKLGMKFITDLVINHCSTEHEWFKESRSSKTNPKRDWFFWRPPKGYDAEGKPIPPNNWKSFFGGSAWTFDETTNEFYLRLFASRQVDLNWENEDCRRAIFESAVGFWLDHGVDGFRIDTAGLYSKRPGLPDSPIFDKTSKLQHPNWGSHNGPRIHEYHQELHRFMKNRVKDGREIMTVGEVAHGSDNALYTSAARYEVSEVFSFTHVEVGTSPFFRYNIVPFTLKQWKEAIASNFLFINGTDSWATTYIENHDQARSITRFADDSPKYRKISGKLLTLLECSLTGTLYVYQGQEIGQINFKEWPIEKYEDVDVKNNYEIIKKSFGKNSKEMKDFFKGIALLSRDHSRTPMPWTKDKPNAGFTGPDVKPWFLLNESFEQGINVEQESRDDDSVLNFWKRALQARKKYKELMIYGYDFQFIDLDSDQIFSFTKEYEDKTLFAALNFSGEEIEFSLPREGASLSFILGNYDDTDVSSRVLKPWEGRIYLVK

In the case of `COc1c2cc(c(OC)c1O)Oc1ccc(cc1)CCCC[C@H](O)/C=C\2` [Giffonin E (5), Giffonin E], in assay [1], the IC50 stood at 167 ± 4.6 µM.

Consider `COc1c2cc(c(OC)c1O)Oc1ccc(cc1)[C@@H](O)C[C@@H](O)/C=C/C=C\2` [Giffonin K (11), Giffonin K], for which the IC50 in assay [1] is 70 ± 3.1 µM. The “reduction of oxidation of thiol groups and carbonylation in plasma proteins” value in the assay with plasma proteins was “most active compounds”.

On to `Oc1ccc2cc1-c1cc(ccc1O)C[C@H](O)[C@H](O)C(O)[C@@H](O)[C@H](O)C2` (stereo partly drawn) [Giffonin P (16), Giffonin P], for which the IC50 in assay [1] is 55.3 ± 7.7 µM.

For the compound `COc1c2cc(c(OC)c1O)Oc1ccc(cc1)CC[C@H](O)/C=C/C=C\2` [Giffonin G (7), Giffonin G], the IC50 in assay [1] worked out at 108 ± 9.2 µM. Moreover, in the assay with plasma proteins, the “reduction of oxidation of thiol groups and carbonylation in plasma proteins” value is listed as “most active compounds”.

In the case of `COc1c(O)cc2cc1Oc1ccc(cc1)CC[C@H](O)/C=C/C=C\2` [Giffonin H (8), Giffonin H], in assay [1], the IC50 worked out at 109 ± 2.9 µM. Besides, in assay [2], the “reduction of H2O2-induced lipid peroxidation” value is “more than 60%” and the “reduction of H2O2/Fe2+-induced lipid peroxidation” value is reported as > 50%.

Consider `O=C1Cc2ccc(O)c(c2)-c2cc(ccc2O)C[C@@H](O)[C@@H](O)[C@@H](O)[C@H]1O` [Giffonin U (23), Giffonin U], for which the IC50 in assay [1] came out at 175 ± 9.8 µM. In addition, in assay [3], the zones of inhibition entry is listed as “completely comparable to those obtained with tetracycline”.

Consider `COc1c2cc(c(OC)c1O)Oc1ccc(cc1)CCC(=O)CC/C=C\2` [Giffonin D (4), Giffonin D], for which the IC50 in assay [1] was determined as 108 ± 6.1 µM. For the same compound, in assay [2], the “reduction of H2O2-induced lipid peroxidation” value is “more than 60%” and the “reduction of H2O2/Fe2+-induced lipid peroxidation” value is on record as > 50%.

As for `COc1c2cc(c(OC)c1O)Oc1ccc(cc1)CC[C@H](O)CC/C=C\2` [Giffonin C (3), Giffonin C], the half-maximal inhibitory concentration (IC50) in assay [1] was 105 ± 6.9 µM.

Turning to `O=C1CCc2ccc(O)c(c2)-c2cc(ccc2O)CC(OC2OC(CO)C(O)C(O)C2O)CC1O` (stereo not drawn) [Giffonin N (14), Giffonin N], the IC50 in assay [1] was found to be 128 ± 11.3 µM.

Take `COc1cc2cc(c1O)Oc1ccc(cc1)CCC(=O)/C=C/C=C/2` [Giffonin S (20), Giffonin S]: the IC50 in assay [1] was 126 ± 8.9 µM.

Turning to `COc1c2cc(c(OC)c1O)Oc1ccc(cc1)[C@@H](O)C[C@@H](O)CC/C=C\2` [Giffonin J (10), Giffonin J], the IC50 in assay [1] worked out at 56.6 ± 9.6 µM.

In the case of `O=C1CCc2ccc(O)c(c2)-c2cc(ccc2O)C[C@H](O)[C@H](O)[C@H]1O` [Carpinontriol B (24), Carpinontriol B], in assay [1], the 50% inhibitory concentration (IC50) amounted to 107 ± 6.1 µM. The zones of inhibition result in assay [3] was “completely comparable to those obtained with tetracycline”.

With `COc1c2cc(c(OC)c1O)Oc1ccc(cc1)CCC(=O)C[C@H](O)/C=C\2` [Giffonin F (6), Giffonin F], in assay [1], the IC50 is 146 ± 4.3 µM.

Take `O=C1CCc2ccc(O)c(c2)-c2cc(ccc2O)CC[C@@H](O)[C@H]1O` [Giffonin V (25), Giffonin V]: the IC50 in assay [1] is 123 ± 4.4 µM.

For `O=C1C[C@@H](O)Cc2ccc(O)c(c2)-c2cc(ccc2O)C[C@H](O)[C@H]1O` [Giffonin O (15), Giffonin O], the IC50 in assay [1] was 124 ± 11.1 µM.

Consider `O=C1/C=C/CCc2ccc(O)c(c2)Oc2ccc(cc2)CC1` [Giffonin Q (18), Giffonin Q], for which, in assay [1], the IC50 is 127 ± 5.9 µM.

Turning to `O=C1/C=C/CCc2ccc(O)c(c2)-c2cc(ccc2O)CC1` [Alnusone (21), Alnusone], the IC50 in assay [1] came out at 154 ± 8.3 µM.

As to `O=C(CCc1ccc(O)c(O)c1)C[C@H](CCc1ccc(O)c(O)c1)O[C@@H]1OC[C@@H](O)[C@H](O)[C@H]1O` [Oregonin (17), Oregonin], the IC50 in assay [1] amounted to 144 ± 7.2 µM.

As to `O=C1CCc2ccc(O)c(c2)-c2cc(ccc2O)C[C@H](O)C[C@@H]1O` [Giffonin M (13), Giffonin M], the IC50 in assay [1] came out at 114 ± 9.7 µM.

As to `O=C1C=CCCc2ccc(OC3OC(CO)C(O)C(O)C3O)c(c2)-c2cc(ccc2OC2OCC(O)C(O)C2O)CC1` (stereo not drawn) [Giffonin I (9), Giffonin I], the IC50 in assay [1] is 105 ± 4.9 µM.

As to `COc1c2cc(c(OC)c1O)Oc1ccc(cc1)CCC(=O)CC/C=C/2` [Giffonin A (1), Giffonin A], in assay [1], the IC50 stood at 184 ± 6.9 µM.

On to `COc1c2cc(c(OC)c1O)Oc1ccc(cc1)[C@@H](O)CC(=O)CC/C=C/2` [Giffonin B (2), Giffonin B], for which the IC50 in assay [1] came to 164 ± 5.2 µM.

`O=C1/C=C/C=C/c2ccc(O)c(c2)Oc2ccc(cc2)CC1` [Giffonin R (19), Giffonin R]: the IC50 in assay [1] is 128 ± 6.1 µM.

`Oc1ccc2cc1-c1cc(ccc1O)C[C@H](O)[C@@H](O)[C@H](O)C[C@@H](O)C2` [Giffonin L (12), Giffonin L]: the IC50 in assay [1] was found to be 172 ± 8.9 µM.

`O=C1CCc2ccc(OC3OC(CO)C(O)C(O)C3O)c(c2)-c2cc(ccc2O)CC(O)C(O)C1O` (stereo not drawn) [Giffonin T (22), Giffonin T]: in assay [1], the IC50 was 131 ± 6.1 µM.
